Experimental data published in US7851474B2, “Dipiperazinyl ketones and related analogues” (Neurogen Corporation, priority 2005, dated 2010).

molecular target: T1, chimeric human H3 receptor (Homo sapiens, UniProt Q9Y5N1, E19D); experiment: Chimeric human H3 receptor GTP binding assay (agonist-stimulated GTP-gamma35S binding, Example 7); assay type: biochemical; conditions: Table II; assay of Example 7; "*" in Ki; read-out: Ki
T1 construct: made in house; host or cells: Sf9 insect cells (baculovirus infection); P2 membrane preparation
T1 sequence (Q9Y5N1 with tags, fused parts or gaps E19D): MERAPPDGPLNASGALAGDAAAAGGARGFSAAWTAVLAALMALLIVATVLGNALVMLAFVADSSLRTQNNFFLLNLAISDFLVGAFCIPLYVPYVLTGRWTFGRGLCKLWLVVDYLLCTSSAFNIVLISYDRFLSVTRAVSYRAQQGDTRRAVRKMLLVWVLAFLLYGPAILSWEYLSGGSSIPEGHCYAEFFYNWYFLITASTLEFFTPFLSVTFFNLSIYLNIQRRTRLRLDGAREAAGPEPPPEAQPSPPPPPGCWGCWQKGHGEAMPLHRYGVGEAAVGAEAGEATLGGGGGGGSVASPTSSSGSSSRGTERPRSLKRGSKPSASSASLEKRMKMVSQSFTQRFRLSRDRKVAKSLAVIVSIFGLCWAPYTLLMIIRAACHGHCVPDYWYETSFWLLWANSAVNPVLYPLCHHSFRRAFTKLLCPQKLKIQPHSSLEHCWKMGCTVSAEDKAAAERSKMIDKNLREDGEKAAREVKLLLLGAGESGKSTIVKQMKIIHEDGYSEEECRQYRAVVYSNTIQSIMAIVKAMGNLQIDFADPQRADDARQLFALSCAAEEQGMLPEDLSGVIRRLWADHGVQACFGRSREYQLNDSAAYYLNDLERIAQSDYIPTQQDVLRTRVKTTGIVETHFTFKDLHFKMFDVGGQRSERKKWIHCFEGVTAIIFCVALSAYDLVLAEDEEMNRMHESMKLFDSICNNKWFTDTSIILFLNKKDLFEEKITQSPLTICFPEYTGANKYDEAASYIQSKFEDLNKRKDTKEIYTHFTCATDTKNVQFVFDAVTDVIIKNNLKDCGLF
Summary of the method: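 Sf9 membranes co-expressing the chimeric receptor and heterotrimeric G-protein subunits, 35 μg protein per tube, in pH 7.4 Tris buffer with 10 μM GDP. Test compounds at 10^−10 to 10^−6 M with 1 μM histamine, 60 min at room temperature. Filter-bound GTP-gamma^35S read by scintillation; IC50 from non-linear regression of dose-response curves.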

Ki, < 1000 nM:
COc1ccc(-c2ccc(N3CCN(CC(=O)N4CCN(C5CCC5)CC4)CC3)nn2)cc1OC [Compound 1033, 3-{4-[2-(4-cyclobutylpiperazin-1-yl)-2-oxoethyl]piperazin-1-yl}-6-(3,4-dimethoxyphenyl) pyridazine]
CCOc1ccc(-c2ccc(N3CCN(CC(=O)N4CCN(C5CCC5)CC4)CC3)nn2)cc1 [Compound 1034, 3-{4-[2-(4-cyclobutylpiperazin-1-yl)-2-oxoethyl]piperazin-1-yl}-6-(4-ethoxyphenyl)pyridazine]
O=C(CN1CCN(c2ccc(-c3ccc4c(c3)OCCO4)nn2)CC1)N1CCN(C2CCC2)CC1 [Compound 1035, 3-{4-[2-(4-cyclobutylpiperazin-1-yl)-2-oxoethyl]piperazin-1-yl}-6-(2,3-dihydro-1,4-benzodioxin-6-yl)pyridazine]
COc1ccc(-c2ccc(N3CCN(CC(=O)N4CCN(C5CCC5)CC4)CC3)nn2)cc1C [Compound 1036, 3-{4-[2-(4-cyclobutylpiperazin-1-yl)-2-oxoethyl]piperazin-1-yl}-6-(4-methoxy-3-methylphenyl)pyridazine]
CCCOc1ccc(-c2ccc(N3CCN(CC(=O)N4CCN(C5CCC5)CC4)CC3)nn2)cc1 [Compound 1037, 3-{4-[2-(4-cyclobutylpiperazin-1-yl)-2-oxoethyl]piperazin-1-yl}-6-(4-propoxyphenyl) pyridazine]
COc1ccc(-c2ccc(N3CCN(CC(=O)N4CCN(C5CCC5)CC4)CC3)nn2)c(C)c1 [Compound 1038, 3-{4-[2-(4-cyclobutylpiperazin-1-yl)-2-oxoethyl]piperazin-1-yl}-6-(4-methoxy-2-methylphenyl)pyridazine]
COc1ccccc1-c1ccc(N2CCN(CC(=O)N3CCN(C4CCC4)CC3)CC2)nn1 [Compound 1039, 3-{4-[2-(4-cyclobutylpiperazin-1-yl)-2-oxoethyl]piperazin-1-yl}-6-(2-methoxyphenyl) pyridazine]
COc1ccc(C(C)C)cc1-c1ccc(N2CCN(CC(=O)N3CCN(C4CCC4)CC3)CC2)nn1 [Compound 1040, 3-{4-[2-(4-cyclobutylpiperazin-1-yl)-2-oxoethyl]piperazin-1-yl}-6-(5-isopropyl-2-methoxyphenyl) pyridazine]
COc1ccc(OC)c(-c2ccc(N3CCN(CC(=O)N4CCN(C5CCC5)CC4)CC3)nn2)c1 [Compound 1041, 3-{4-[2-(4-cyclobutylpiperazin-1-yl)-2-oxoethyl]piperazin-1-yl}-6-(2,5-dimethoxyphenyl) pyridazine]
COc1ccc(-c2ccc(N3CCN(CC(=O)N4CCN(C5CCC5)CC4)CC3)nn2)c(OC)c1 [Compound 1042, 3-{4-[2-(4-cyclobutylpiperazin-1-yl)-2-oxoethyl]piperazin-1-yl}-6-(2,4-dimethoxyphenyl) pyridazine]
CCOc1ccccc1-c1ccc(N2CCN(CC(=O)N3CCN(C4CCC4)CC3)CC2)nn1 [Compound 1043, 3-{4-[2-(4-cyclobutylpiperazin-1-yl)-2-oxoethyl]piperazin-1-yl}-6-(2-ethoxyphenyl)pyridazine]
O=C(CN1CCN(c2ccc(-c3cccc4c3oc3ccccc34)nn2)CC1)N1CCN(C2CCC2)CC1 [Compound 1044, 3-{4-[2-(4-cyclobutylpiperazin-1-yl)-2-oxoethyl]piperazin-1-yl}-6-dibenzo[b,d]furan-4-ylpyridazine]
COc1ccc(F)cc1-c1ccc(N2CCN(CC(=O)N3CCN(C4CCC4)CC3)CC2)nn1 [Compound 1045, 3-{4-[2-(4-cyclobutylpiperazin-1-yl)-2-oxoethyl]piperazin-1-yl}-6-(5-fluoro-2-methoxyphenyl) pyridazine]
COc1ccc(C)cc1-c1ccc(N2CCN(CC(=O)N3CCN(C4CCC4)CC3)CC2)nn1 [Compound 1046, 3-{4-[2-(4-cyclobutylpiperazin-1-yl)-2-oxoethyl]piperazin-1-yl}-6-(2-methoxy-5-methylphenyl) pyridazine]
O=C(CN1CCN(c2ccc(-c3ccccc3Oc3ccccc3)nn2)CC1)N1CCN(C2CCC2)CC1 [Compound 1047, 3-{4-[2-(4-cyclobutylpiperazin-1-yl)-2-oxoethyl]piperazin-1-yl}-6-(2-phenoxyphenyl) pyridazine]
O=C(CN1CCN(c2ccc(-c3cc(F)ccc3F)nn2)CC1)N1CCN(C2CCC2)CC1 [Compound 1048, 3-{4-[2-(4-cyclobutylpiperazin-1-yl)-2-oxoethyl]piperazin-1-yl}-6-(2,5-difluorophenyl)pyridazine]
O=C(CN1CCN(c2ccc(-c3ccc(F)c(F)c3)nn2)CC1)N1CCN(C2CCC2)CC1 [Compound 1049, 3-{4-[2-(4-cyclobutylpiperazin-1-yl)-2-oxoethyl]piperazin-1-yl}-6-(3,4-difluorophenyl)pyridazine]
O=C(CN1CCN(c2ccc(-c3cc(Cl)cc(Cl)c3)nn2)CC1)N1CCN(C2CCC2)CC1 [Compound 1050, 3-{4-[2-(4-cyclobutylpiperazin-1-yl)-2-oxoethyl]piperazin-1-yl}-6-(3,5-dichlorophenyl)pyridazine]
O=C(CN1CCN(c2ccc(-c3ccc(Cl)c(Cl)c3)nn2)CC1)N1CCN(C2CCC2)CC1 [Compound 1051, 3-{4-[2-(4-cyclobutylpiperazin-1-yl)-2-oxoethyl]piperazin-1-yl}-6-(3,4-dichlorophenyl)pyridazine]
O=C(CN1CCN(c2ccc(-c3cc(F)cc(F)c3)nn2)CC1)N1CCN(C2CCC2)CC1 [Compound 1052, 3-{4-[2-(4-cyclobutylpiperazin-1-yl)-2-oxoethyl]piperazin-1-yl}-6-(3,5-difluorophenyl)pyridazine]
O=C(CN1CCN(c2ccc(-c3cccc(F)c3F)nn2)CC1)N1CCN(C2CCC2)CC1 [Compound 1053, 3-{4-[2-(4-cyclobutylpiperazin-1-yl)-2-oxoethyl]piperazin-1-yl}-6-(2,3-difluorophenyl)pyridazine]
O=C(CN1CCN(c2ccc(-c3cccc(Cl)c3Cl)nn2)CC1)N1CCN(C2CCC2)CC1 [Compound 1054, 3-{4-[2-(4-cyclobutylpiperazin-1-yl)-2-oxoethyl]piperazin-1-yl}-6-(2,3-dichlorophenyl)pyridazine]
O=C(CN1CCN(c2ccc(-c3ccc(Cl)cc3Cl)nn2)CC1)N1CCN(C2CCC2)CC1 [Compound 1055, 3-{4-[2-(4-cyclobutylpiperazin-1-yl)-2-oxoethyl]piperazin-1-yl}-6-(2,4-dichlorophenyl)pyridazine]
O=C(CN1CCN(c2ccc(-c3ccccc3C(F)(F)F)nn2)CC1)N1CCN(C2CCC2)CC1 [Compound 1056, 3-{4-[2-(4-cyclobutylpiperazin-1-yl)-2-oxoethyl]piperazin-1-yl}-6-[2-(trifluoromethyl)phenyl] pyridazine]
COc1cccc(OC)c1-c1ccc(N2CCN(CC(=O)N3CCN(C4CCC4)CC3)CC2)nn1 [Compound 1057, 3-{4-[2-(4-cyclobutylpiperazin-1-yl)-2-oxoethyl]piperazin-1-yl}-6-(2,6-dimethoxyphenyl) pyridazine]
CC(C)c1ccccc1-c1ccc(N2CCN(CC(=O)N3CCN(C4CCC4)CC3)CC2)nn1 [Compound 1058, 3-{4-[2-(4-cyclobutylpiperazin-1-yl)-2-oxoethyl]piperazin-1-yl}-6-(2-isopropylphenyl) pyridazine]
